In one assay the test system is HT129 cells. In words: p-ERK staining in EGF-induced HT129 cells. It is filed as cell-based. The protocol:
Cells (LNCaP, DU 145, HT 129) were grown in culture (DMEM supplemented with 10% FBS, L-Glutamine, Penicillin and Streptomycin) and exposed to vehicle, the PI3K inhibitor LY294002 (30 μM), the mTOR inhibitor, CCI-779 (20 nM) for 18 hours or the MEK inhibitor, UO126 (20 μM) combined with 100 ng/ml of EGF for 20 minutes. Cell pellets were prepared, formalin fixed and embedded in paraffin, then cut for immunohistochemical staining with phospho-AKT, -S6, -FKHR and -ERK antibodies. We performed antigen retrieval with a 10 mM sodium citrate buffer (pH 6.0) for 30 minutes in a pressure cooker. Peroxidase activity was quenched with 3% hydrogen peroxide in water. Sections were stained overnight at 4° C. with monoclonal antibodies to PTEN at 1:300 (clone 6H2.1; Cascade Bioscience, Winchester, Mass. This antibody recognizes a 99 amino acid epitope at the C-terminus of PTEN) and polyclonal phosphorylation-specific antibodies to p-AKT (Set 473), p-FKHR which recognizes phosphorylated forms of the forkhead family of transcription factors FKHR (FOXO 1), FKHRL1 (FOXO 3a) and AFX (FOXO 4), p-S6 Ribosomal protein (Set 235/236), p-ERK (Thr-202/Tyr-204) at 1:100 (Cell Signaling Technology, Beverly, Mass.). […] Following incubation, images were captured on a Nikon fluorescence microscope and then overlaid using Adobe Photoshop software. […]

The next assay concerns LNCaP cells. In words: Immunostaining of formalin fixed, paraffin embedded LNCaP cell pellets with phospho-specific antibodies after inhibitor treatment. The class given is cell-based. Conditions: 18 hours, vs vehicle. The protocol:
Cells (LNCaP, DU 145, HT 129) were grown in culture (DMEM supplemented with 10% FBS, L-Glutamine, Penicillin and Streptomycin) and exposed to vehicle, the PI3K inhibitor LY294002 (30 μM), the mTOR inhibitor, CCI-779 (20 nM) for 18 hours or the MEK inhibitor, UO126 (20 μM) combined with 100 ng/ml of EGF for 20 minutes. Cell pellets were prepared, formalin fixed and embedded in paraffin, then cut for immunohistochemical staining with phospho-AKT, -S6, -FKHR and -ERK antibodies. We performed antigen retrieval with a 10 mM sodium citrate buffer (pH 6.0) for 30 minutes in a pressure cooker. Peroxidase activity was quenched with 3% hydrogen peroxide in water. Sections were stained overnight at 4° C. with monoclonal antibodies to PTEN at 1:300 (clone 6H2.1; Cascade Bioscience, Winchester, Mass. This antibody recognizes a 99 amino acid epitope at the C-terminus of PTEN) and polyclonal phosphorylation-specific antibodies to p-AKT (Set 473), p-FKHR which recognizes phosphorylated forms of the forkhead family of transcription factors FKHR (FOXO 1), FKHRL1 (FOXO 3a) and AFX (FOXO 4), p-S6 Ribosomal protein (Set 235/236), p-ERK (Thr-202/Tyr-204) at 1:100 (Cell Signaling Technology, Beverly, Mass.). This was followed by application of biotinylated secondary antibodies (Vector) at 1:1000 dilution for 30 minutes and Avidin-biotin complex (Elite ABC; Vector). Negative control slides received normal mouse serum (DAKO) as the primary antibody. Diaminobenzidine tetrahydrochloride (DAB) was used as the enzyme substrate to visualize specific antibody localization for PTEN and p-AKT; Vector NovaRed (Vector) for p-FKHR, p-S6 and p-ERK. Slides were counterstained with Harris hematoxylin. For immunofluorescence assays, post fixation in paraformaldehyde, the cells were probed with Total AKT (1:50) and p-AKT (1:250); the secondary antibodies Alexa Flour anti-rabbit and anti-mouse (1:1000) [Molecular Probes, Eugene, Oreg.]. Following incubation, images were captured on a Nikon fluorescence microscope and then overlaid using Adobe Photoshop software. […]

Assay [1] has as its system PTEN deficient prostate cancer xenografts. Conditions: PTEN deficient vs wild type prostate cancer xenografts; cited from earlier work.
The subject of assay [2] is PTEN deficient prostate cancer cell lines. Conditions: PTEN deficient vs wild type prostate cancer cell lines; cited from earlier work.
A further assay relates to SKMG-3 cells. Conditions: unstimulated SKMG-3 cells, minimal growth conditions; cited from earlier work.

“Also recorded” adds a separate entry of the source.

These results are taken from patent US20080299589A1, “Methods and Materials for Examining the P13k/Akt Pathway in Gliomas and Prostate Cancers” (The Regents of the University of California, priority 2003, published 2008).

`O=c1cc(N2CCOCC2)oc2c(-c3ccccc3)cccc12` [LY294002]: the p-ERK staining entry in the assay with HT129 cells (HT129 cells induced with EGF 100 ng/ml, LY294002) is “lack of inhibition”. The “staining intensity of p-ERK” value in the assay with LNCaP cells (LY294002 30 μM) is reported as “no effect”.

Regarding `N#CC(=C(/N)Sc1ccccc1N)/C(C#N)=C(/N)Sc1ccccc1N` [UO-126], in the assay with HT129 cells (HT129 cells induced with EGF 100 ng/ml for 20 minutes, UO-126 20 μM for 20 minutes), the p-ERK staining entry is “decreased staining; also recorded: reduced”.

Consider `CO[C@H]1C[C@@H]2CC[C@@H](C)[C@@](O)(O2)C(=O)C(=O)N2CCCC[C@H]2C(=O)O[C@H]([C@H](C)C[C@@H]2CC[C@@H](OC(=O)C(C)(CO)CO)[C@H](OC)C2)CC(=O)[C@H](C)/C=C(\C)[C@@H](O)[C@@H](OC)C(=O)[C@H](C)C[C@H](C)/C=C/C=C/C=C/1C` [CCI-779], for which, in the assay on LNCaP cells (CCI-779 20 nM), the “staining intensity of p-AKT” value is reported as “no effect” and the “staining intensity of p-S6 (S6 phosphorylation)” value is listed as “downregulation of S6 phosphorylation; also recorded: decreased staining intensity”. Further, in assay [1], the “sensitivity to pharmacologic inhibition of mTOR compared to wild type counterparts” value was “more sensitive”. The “sensitivity to pharmacologic inhibition of mTOR compared to wild type counterparts” value in assay [2] was “more sensitive”.

As for `CNc1cc2c(Nc3cccc(Br)c3)ncnc2cn1` [PD158780], in the assay with SKMG-3 cells, the “constitutive phosphorylation of Erk” value is on record as “reduces the constitutive phosphorylation” and the “constitutive phosphorylation of the receptor (EGFR)” value is “reduces the constitutive phosphorylation”.
